Laboratory results reported in ChEMBL document CHEMBL3885861, “Open TG-GATES”.

Organism: Rattus norvegicus
Experiment: Open TG-GATES - Regimen: Single
Type: toxicity, organism-based, Sprague-Dawley
Set-up: regimen Single, gender Male, age 6 weeks
Conditions: in vivo, po, 0 mg/kg, route gavage, dose level Control; for APTT / Bas / Eos / Fbg / Hb / Ht / Lym / MCH / MCHC / MCV / Mono / Neu / PT / Plat / RBC / Ret / WBC: tissue Blood; for KIDNEY_L / KIDNEY_R / KIDNEY_TOTAL: tissue Kidney; for LIVER: tissue Liver; for A/G / ALP / ALT / AST / BUN / CRE / Ca / Cl / DBIL / GLC / IP / K / LDH / Na / PL / RALB / TBIL / TC / TG / TP / gamma-GTP: tissue Plasma

O=C(O)c1ccccc1Nc1ccccc1 [FENAMIC ACID]
TERMINAL_BW (3 h): 209.2 g
APTT (3 h): 16.5 s
Bas (3 h): 0.4%
Eos (3 h): 1%
Fbg (3 h): 255.6 mg/dL
Hb (3 h): 13.1 g/dL
Ht (3 h): 39.6%
Lym (3 h): 73.4%
MCH (3 h): 20.8 pg
MCHC (3 h): 33%
MCV (3 h): 63.1 fL
Mono (3 h): 2%
Neu (3 h): 22.8%
PT (3 h): 14 s
Plat (3 h): 119.2 x10_4/uL
RBC (3 h): 627.8 x10_4/ul
Ret (3 h): 8.3%
WBC (3 h): 95.4 x10_2/uL
KIDNEY_L (3 h): 0.9 g
KIDNEY_R (3 h): 0.9 g
KIDNEY_TOTAL (3 h): 1.8 g
LIVER (3 h): 8.8 g
A/G (3 h): 0.9
ALP (3 h): 1511 IU/L
ALT (3 h): 33.2 IU/L
AST (3 h): 75 IU/L
BUN (3 h): 9.2 mg/dL
CRE (3 h): 0.2 mg/dL
Ca (3 h): 10.9 mg/dL
Cl (3 h): 105.4 meq/L
DBIL (3 h): 0.008 mg/dL
GLC (3 h): 185.4 mg/dL
IP (3 h): 9 mg/dL
K (3 h): 4.2 meq/L
LDH (3 h): 75.4 IU/L
Na (3 h): 144 meq/L
PL (3 h): 132 mg/dL
RALB (3 h): 2.5 g/dL
TBIL (3 h): 0.05 mg/dL
TC (3 h): 69 mg/dL
TG (3 h): 77.6 mg/dL
TP (3 h): 5.4 g/dL
gamma-GTP (3 h): 1 IU/L
TERMINAL_BW (6 h): 204.2 g
APTT (6 h): 18.5 s
Bas (6 h): 0.4%
Eos (6 h): 0.8%
Fbg (6 h): 283.4 mg/dL
Hb (6 h): 13.2 g/dL
Ht (6 h): 39.8%
Lym (6 h): 76.4%
MCH (6 h): 20.7 pg
MCHC (6 h): 33.1%
MCV (6 h): 62.7 fL
Mono (6 h): 2.8%
Neu (6 h): 19.6%
PT (6 h): 13.9 s
Plat (6 h): 112.2 x10_4/uL
RBC (6 h): 634.4 x10_4/ul
Ret (6 h): 8.3%
WBC (6 h): 84.7 x10_2/uL
KIDNEY_L (6 h): 0.9 g
KIDNEY_R (6 h): 0.9 g
KIDNEY_TOTAL (6 h): 1.8 g
LIVER (6 h): 8.2 g
A/G (6 h): 0.9
ALP (6 h): 1530.8 IU/L
ALT (6 h): 35 IU/L
AST (6 h): 77.4 IU/L
BUN (6 h): 7.8 mg/dL
CRE (6 h): 0.2 mg/dL
Ca (6 h): 11.1 mg/dL
Cl (6 h): 105 meq/L
DBIL (6 h): 0.004 mg/dL
GLC (6 h): 157.2 mg/dL
IP (6 h): 9.1 mg/dL
K (6 h): 4.1 meq/L
LDH (6 h): 79.6 IU/L
Na (6 h): 143 meq/L
PL (6 h): 136.8 mg/dL
RALB (6 h): 2.5 g/dL
TBIL (6 h): 0.054 mg/dL
TC (6 h): 75.6 mg/dL
TG (6 h): 56.2 mg/dL
TP (6 h): 5.4 g/dL
gamma-GTP (6 h): 1.2 IU/L
TERMINAL_BW (9 h): 204.4 g
APTT (9 h): 18.2 s
Bas (9 h): 0.6%
Eos (9 h): 1%
Fbg (9 h): 261.6 mg/dL
Hb (9 h): 13.3 g/dL
Ht (9 h): 40.4%
Lym (9 h): 75.4%
MCH (9 h): 20.5 pg
MCHC (9 h): 33.1%
MCV (9 h): 62.1 fL
Mono (9 h): 1.8%
Neu (9 h): 21.6%
PT (9 h): 14.3 s
Plat (9 h): 129.3 x10_4/uL
RBC (9 h): 650.4 x10_4/ul
Ret (9 h): 8.1%
WBC (9 h): 69 x10_2/uL
KIDNEY_L (9 h): 0.9 g
KIDNEY_R (9 h): 0.9 g
KIDNEY_TOTAL (9 h): 1.8 g
LIVER (9 h): 7.9 g
A/G (9 h): 0.9
ALP (9 h): 1501.2 IU/L
ALT (9 h): 35 IU/L
AST (9 h): 77.6 IU/L
BUN (9 h): 9.2 mg/dL
CRE (9 h): 0.2 mg/dL
Ca (9 h): 10.8 mg/dL
Cl (9 h): 106 meq/L
DBIL (9 h): 0 mg/dL
GLC (9 h): 182.4 mg/dL
IP (9 h): 9.6 mg/dL
K (9 h): 3.9 meq/L
LDH (9 h): 70 IU/L
Na (9 h): 145 meq/L
PL (9 h): 130.6 mg/dL
RALB (9 h): 2.6 g/dL
TBIL (9 h): 0.05 mg/dL
TC (9 h): 72.8 mg/dL
TG (9 h): 39 mg/dL
TP (9 h): 5.5 g/dL
gamma-GTP (9 h): 1.2 IU/L
TERMINAL_BW (24 h): 218.8 g
APTT (24 h): 16.2 s
Bas (24 h): 0.8%
Eos (24 h): 1%
Fbg (24 h): 271 mg/dL
Hb (24 h): 13.5 g/dL
Ht (24 h): 40.9%
Lym (24 h): 80.6%
MCH (24 h): 20.9 pg
MCHC (24 h): 33%
MCV (24 h): 63.3 fL
Mono (24 h): 2%
Neu (24 h): 15.2%
PT (24 h): 14.4 s
Plat (24 h): 124.1 x10_4/uL
RBC (24 h): 646.8 x10_4/ul
Ret (24 h): 7%
WBC (24 h): 111.8 x10_2/uL
KIDNEY_L (24 h): 1 g
KIDNEY_R (24 h): 1 g
KIDNEY_TOTAL (24 h): 1.9 g
LIVER (24 h): 9.7 g
A/G (24 h): 0.9
ALP (24 h): 1870.8 IU/L
ALT (24 h): 44.4 IU/L
AST (24 h): 73.8 IU/L
BUN (24 h): 13.4 mg/dL
CRE (24 h): 0.2 mg/dL
Ca (24 h): 11.2 mg/dL
Cl (24 h): 105.2 meq/L
DBIL (24 h): 0.008 mg/dL
GLC (24 h): 177.2 mg/dL
IP (24 h): 7.8 mg/dL
K (24 h): 4.2 meq/L
LDH (24 h): 85.4 IU/L
Na (24 h): 142.6 meq/L
PL (24 h): 148.4 mg/dL
